Assay [1] deals with hiPS cells. Kind of assay: Cell viability under suspension culture. In kind it is cell-based, human. To be noted: hPS cells in suspension, 2 days, various concentrations. Here is the method:
For the evaluation of cell viability under suspension culture, hES or hiPS cells were plated at 5×10^5 in non-tissue culture-treated 6-well plates with non-conditioned standard hESm containing blebbistatin or Y-27632 at different concentrations in triplicates. After 2 days, cells were harvested with trypsinization and extensive trituration by pipetting, and the number of live cells was manually counted by using hemocytometer and trypan blue staining. The cell survival ratio (%) represents the ratio of the number of live cells to the number of cells plated. The same samples were subjected to TUNEL assay for side by side comparison with the data from cell viability assay.

The test system of assay [2] is hiPS cells. Kind of assay: Cell viability assay under adherence conditions (trypan blue live cell counting). In kind it is cell-based, human. Here is the method:
hES or hiPS cells were plated at 1×10^5 cells/well on 12-well plates coated with PDL or Matrigel in mTeSR in the presence or absence of blebbistatin or Y-27632 at various concentrations in triplicates. DMSO (solvent for blebbistatin) was also added in the control condition and found to have no effect on viability. For mES cells, cells were plated under the same condition except for the use of gelatin coating and mES medium. After 24 h, cells were harvested, trypsinized to single cells, and counted by hemocytometer. Cell counting was performed independently by two researchers to confirm the consistency. The same samples were used for TUNEL assay immediately after taking a small fraction of the sample for cell counting.

The test system of the next assay is mES cells. Kind of assay: Cell-cell contact of mES cells (morphology, cell contact index). In kind it is cell-based, mouse. An excerpt:
Rho and Rho-associated kinase (Rock) play a role in regulation of cell-cell interactions in pluripotent stem cells. In order to further explore the core mechanism underlying cell-cell adhesions, principle regulators downstream of Rock were examined. Based on functional prescreening non-muscle myosin II was identified as an effector by siRNA-mediated loss of function analysis. Non-muscle Myosin II (myosin II), the two-headed conventional myosin, consists of non-muscle myosin II heavy chain (NMHC) dimers and two sets of myosin light chains (MLCs). […] Among them, all the genes except IIC are expressed in pluripotent stem cells whereas differentiated cells express all three isoforms. […] The specificity and levels of knockdown of the target genes by each siRNA were confirmed by quantitative RT-PCR (QPCR) (FIG. 2). Myosin phosphatase target subunit 1 (MYPT1), a major downstream target of Rock that negatively regulates myosin function through […] of myosin regulatory light chain (MRLC) was examined. MYPT1 was exclusively localized to cell-cell contact sites in mES cells (FIG. 1B). If Rock controls the myosin function through inhibition of MYPT1, depletion of MYPT1 would rescue the intrinsic cell-cell interactions from the robust effect of Y27632 (FIG. 1C).

Assay [3] concerns hiPS cells. The experiment in a line: Cell growth assay (population doubling time). In kind it is cell-based, human. The conditions noted are these: hiPS cells on PDL in mTeSR, compound at 5 μM. Here is the method: For the cell growth assay, hiPS or hES cells were plated at 2.5×10^4 cells/cm^2 on plates coated with PDL or Matrigel in mTeSR in the presence of blebbistatin at 5 μM or Y-27632 at 5 μM (PDL) or in the absence of compounds (Matrigel). Cells were harvested at the indicated time points, stained with trypan blue, and counted by the hemocytometer.

The next assay concerns hES cells. The experiment in a line: Cell-cell contact of hES cells (morphology, cell contact index). In kind it is cell-based, human. To be noted: hES cells grown on Matrigel. Here is the method:
Rock and myosin II regulate cell-cell interactions in hES cells. To test whether the observed function of RRM signaling in cell-cell contacts in mES cells is conserved in hES cells, H1 cells grown under the feeder-free condition with Matrigel™ and conditioned medium (CM) (FIG. 3A) were treated with C3 exoenzyme. […] Rock-inhibitor treatment also led to cell adhesion defects although it required a higher concentration (20 μM) than that (10 μM) for mES cells (FIG. 3C). Myosin IIA and IIB were colocalized with cell-cell borders in hES cells, which indicates their potential role in cell-cell adhesions (FIG. 3D).

“Also recorded” adds a separate entry of the source.

On to `O=S(=O)(c1cccc2c(I)cccc12)N1CCCNCC1` [ML-7], for which the “Effect on survival in suspension culture” value in the assay on hiPS cells [1] is recorded as “did not show a significant effect on survival; also recorded: No difference in the survival rate”. Further, the “Effect on cell survival” value with hiPS cells [2] (hiPS cells on PDL-coated dishes, different concentrations) was “No significant increase in cell survival”.

Turning to `C[C@@H](N)[C@H]1CC[C@H](C(=O)Nc2ccncc2)CC1` [Y-27632], the “Concentration that disassembled cell-cell junctions” value worked out at 10 µM in the assay with mES cells and 20 µM in the assay with hES cells. Besides, the Population doubling time with hiPS cells [3] is recorded as around 32.2 h. The “Number of viable cells” value in the assay with hiPS cells [2] (hiPS cells on PDL, 10 μM, 24 h after plating 1×10^5 cells/well, n=3) is 7.2±1.1×10^4 cells.

The values are drawn from patent US8609417B2, “Methods and compositions for stem cell cultures” (The Regents of the University of California, priority 2009, dated 2013).
